Consider eight substances from patent publication US20040132108A1, “Screening methods and agents” (priority 2001, published 2004).

“Also recorded” adds a separate entry of the source.

Assay [1] relates to p53-dependent transactivation of the p21 promoter. The assay is described as follows: p21-Luciferase reporter of endogenous p53-dependent transcription in A375 cells. The assay is classed as cell-based. The conditions noted are these: for basal p53-dependent transactivation of the p21 promoter: cycling A375 cells, transient transfection, p21-Luc / β-Gal.
Description: Proliferating A375 cells were transiently co-transfected with EGFP-NS, EGFP-BOX-I, EGFP-S15D, EGFP-T18D or EGFP-S20D and control or p21-Luciferase reporter constructs. Changes in the basal p53-dependent transcription activity was quantitated 24 hours post-transfection.
A375 and HCT116 cells both containing a wild-type p53 pathway were maintained in DMEM (Gibco BRL) supplemented with 10% FBS and incubated at 37° C. with an atmosphere of 10% CO2. For transient transfections, 3×10^5 cells were plated out in 6-well dishes and transfected with LipofectAMINE (Gibco BRL). The exact quantity of DNA transfected is indicated in each experiment and where necessary, carrier DNA was incorporated to keep the same quantity of DNA consistent in each transfecton. To monitor transfection efficiency, pCMV-βGal was included in each transfection. Unless otherwise stated, cells were harvested 24 hours post-transfection and lysed in Reporter Lysis Buffer and the corresponding luciferase and β-Gal assay carried out according to the manufacturers protocol (Promega, UK).
The next assay deals with HCT116 (p53^+/+) cells. The assay is described as follows: Cell cycle profile by FACS in HCT116 p53+/+ cells. The format is cell-based. As to conditions: 5 μg EGFP construct, CD20-selected cells, propidium iodide. An excerpt:
To address this issue, we co-transfected EGFP-NS, EGFP-BOXI, EGFP-S20D or EGFP-PRO with pCMV-CD20 cell surface marker into HCT116 (p53^+/+) cells, selected the transfected population using a FITC-conjugated CD20 antibody, sorted them by FACS and the resultant cell cycle profile of the transfected population determined by propidium iodide staining of DNA. The amount of EGFP-peptide construct and levels of EGFP protein produced were identical to those used in transcription assays (FIG. 10 and data not shown), so a direct correlation can be made between the reduction in transcription by the EGFP-S20D or EGFP-PRO peptides and changes in cell-cycle parameters. […] The MDM2-binding peptides have been well-documented to have a positive affect on […] dependent transcription (Bottger, Bottger et al. 1996).
(§1) To select the transfected cell population, cells were co-transfected with 3 μg pCMV-CD20 and incubated for 24 hours before washing and detaching cells in PBS/5 mM EDTA. Cells were then harvested and resuspended in serum free media with FITC-conjugated anti-CD20 (Becton Dickinson) and incubating for 30 minutes on ice. Cells were then washed twice with PBS/1% FBS and resuspended in 100 μl PBS before adding 900 μl ice-cold ethanol dropwise. After incubation at 4° C. for >2 hours cells were stained with Pi (40 μg/ml) and treated with RNAse (100 μg/ml). Transfected cells were gated using the FL1 channel and PI staining detected with the FL2 channel and the resultant cell cycle profiles of 2000 cells were analysed using a FACScan and CellQuest software (Becton Dickinson).

Assay [2] relates to p300 induction of p53-dependent gene expression from the p21 promoter. Nature of the assay: p53/p300 co-transfected Saos-2 cells, p21-Luc reporter. The assay is classed as cell-based. The conditions noted are these: for p53-p300 co-stimulated transactivation, p21 promoter: Saos-2 cells co-transfected with p53 and p300, increasing EGFP construct; for p53 protein levels (immunoblot): Saos-2 cells, 1 μg EGFP construct, relative to EGFP-NS control. The method, then: FIG. 3: In vivo inhibition of ectopically expressed p53 from the p21 promoter by phospho-peptide mimetic fusion proteins. (A) Stimulation of p53 activity by cotransfection with p300. Saos-2 cells were transiently co-transfected with 1 μg of pCMV-p53, 2 μg p21-Luc, 1 μg pCMVβ-Gal and increasing amounts of pCMV-βp300. The cells were harvested 30 hours post-transfection and the relative activity is expressed as a ratio of luciferase activity to β-Gal activity (Δ negative control, 0 ng, 1 μg, 2 μg and 5 μg). (B) EGFP-S20D peptide ([…] LPENN) inhibits p300 induction of p53-dependent gene expression. Saos-2 cells were transiently co-transfected with 1 μg pCMV-p53, 2 μg p21-Luc, 5 μg pCMVβp300, 1 μg of pCMVβ-Gal and increasing amounts of EGFP-constructs as indicated. The cells were processed as described in the legend of FIG. 3A (▴ control, control, 1 μg, 2 μg and 5 μg). (C) Immunoblots of p53 and EGFP-fusion proteins in transfected Saos-2 cells. Lysates from transfected Saos-2 cells [as described in FIG. 3B] were normalized for protein content by Bradford and loading for immunoblots was confirmed by Red Ponceau staining. The constructs transfected are highlighted by the legend above the Figure (increasing amounts of EGFP fused to NS, BOX-I, S15D, T18D, and S20D BOX-I domain peptides) and are described below the Figure as a “+”. The levels of p53, EGFP, and p21 proteins are in the top, middle, or bottom panel, respectively. p53-dependent activity (in RLU's) from FIG. 3B is listed underneath the immunoblots for direct comparison of p53 activity to p53 protein and EGFP protein levels.
(§2) A final model used to examine whether the phospho-peptide mimetic peptides inhibit p53 activity involved the use of the p53-null cell line Saos-2 co-transfected with p300, p53, and the indicated reporter or expression vectors (FIG. 3). Transient co-transfection of increasing amounts of p300 with p53 into Saos-2 cells lead to maximal stimulation of p53-dependent gene expression from the p21 promoter (FIG. 3A) or the bax promoter (FIG. 5A).
A375 and Saos-2 cells were maintained in DMEM (Gibco BRL) supplemented with 10% FBS and incubated at 37° C. with an atmosphere of 10% CO2. Transient transfections and ELISAs were carried out as previously described (Dornan and Hupp 2001). Full-length p300 and His-p300 infected Sf9 cells were harvested 72 hours post-infection as described previously (Shikama, Lee et al. 1999; Dornan and Hupp 2001). Sf9 expressed wtp53 and p53ΔProAE tetramers were purified by heparin-sepharose chromatography as described previously (Hupp and Lane 1994). Transfected lysates were run on a 12% SDS-PAGE and transferred to nitrocellulose membrane and even protein loading confirmed by Ponceau S (Sigma) staining. Primary antibodies anti-p53 (DO-1), anti-p21 (Ab-1) (Calbiochem), anti-Bax (N-20) (Santa Cruz Biotechnology Inc.), anti-EGFP (Clontech) were used and the appropriate secondary antibody conjugated to HRP. The signal detected by Enhanced Chemo-luminescence was developed using autoradiography film (Amersham).
In general terms: In western blotting, separated proteins are transferred to a membrane and probed.

Assay [3] concerns p300 induction of p53-dependent gene expression from the bax promoter. The assay is described as follows: p53/p300 co-transfected Saos-2 cells, bax-Luc reporter. The assay is classed as cell-based. As to conditions: Saos-2 cells co-transfected with p53 and p300, increasing EGFP construct. The method, then:
FIG. 5: In vivo inhibition of ectopically expressed p53 activity from the bax promoter by phospho-peptide mimetic fusion proteins. (A) Stimulation of p53 activity by cotransfection with p300. Saos-2 cells were transiently co-transfected with 1 μg of pCMV-p53, 2 μg bax-Luc, 1 μg pCMVβ-Gal and increasing amounts of pCMV-βp300. The cells were harvested 30 hours post-transfection and the relative activity is expressed as a ratio of luciferase activity to β-Gal activity. (B) EGFP-S20D peptide fusion protein inhibits p300 induction of p53-dependent gene expression. Saos-2 cells were transiently co-transfected with 1 μg pCMV-p53, 2 μg bax-Luc, 5 μg pCMVβp300, 1 μg of pCMVβ-Gal and increasing amounts of EGFP-S20D or EGFP-control. Cells were harvested 30 hours post-transfection and relative activity is expressed as a ratio of luciferase activity to β-Gal activity ( ? control, 0 μg, 1 μg, 2 μg and 5 μg).
as §2
A375 and Saos-2 cells were maintained in DMEM (Gibco BRL) supplemented with 10% FBS and incubated at 37° C. with an atmosphere of 10% CO2. Transient transfections and ELISAs were carried out as previously described (Dornan and Hupp 2001). Full-length p300 and His-p300 infected Sf9 cells were harvested 72 hours post-infection as described previously (Shikama, Lee et al. 1999; Dornan and Hupp 2001). Sf9 expressed wtp53 and p53ΔProAE tetramers were purified by heparin-sepharose chromatography as described previously (Hupp and Lane 1994). […] The signal detected by Enhanced Chemo-luminescence was developed using autoradiography film (Amersham).

For the next assay, the system named is HCT116 p53^−/− cells. Nature of the assay: Cell cycle profile by FACS in HCT116 p53-/- cells. As to conditions: 5 μg EGFP construct, CD20-selected cells, propidium iodide. The format is cell-based. Here is the method: With the arrest in G2/M observed in p53^+/+ cells using the PRO and S20D fusion peptides, it was determined whether the peptides would have any effect on the cell cycle profile in a p53^−/− cell line. Using the same parameters as in the p53^+/+ cell line, the effects on the cell cycle were determined (FIGS. 12B and 12D).
as §1
(In flow cytometry, cells or beads pass a laser one at a time.)

The target of a further assay is T1, full-length p300 protein (Homo sapiens, UniProt Q09472).
T1 construct: Full-length p300 and p300(1135-2414) baculovirus were a gift from N. B. La Thangue; made in house; host or cells: Sf9 insect cells (baculovirus)
Nature of the assay: ELISA binding of full-length p300 to biotinylated peptides. As to conditions: biotinylated peptide titrated onto streptavidin-coated wells. For orientation: ELISA stands for enzyme-linked immunosorbent assay.

T1 sequence (Q09472 whole entry): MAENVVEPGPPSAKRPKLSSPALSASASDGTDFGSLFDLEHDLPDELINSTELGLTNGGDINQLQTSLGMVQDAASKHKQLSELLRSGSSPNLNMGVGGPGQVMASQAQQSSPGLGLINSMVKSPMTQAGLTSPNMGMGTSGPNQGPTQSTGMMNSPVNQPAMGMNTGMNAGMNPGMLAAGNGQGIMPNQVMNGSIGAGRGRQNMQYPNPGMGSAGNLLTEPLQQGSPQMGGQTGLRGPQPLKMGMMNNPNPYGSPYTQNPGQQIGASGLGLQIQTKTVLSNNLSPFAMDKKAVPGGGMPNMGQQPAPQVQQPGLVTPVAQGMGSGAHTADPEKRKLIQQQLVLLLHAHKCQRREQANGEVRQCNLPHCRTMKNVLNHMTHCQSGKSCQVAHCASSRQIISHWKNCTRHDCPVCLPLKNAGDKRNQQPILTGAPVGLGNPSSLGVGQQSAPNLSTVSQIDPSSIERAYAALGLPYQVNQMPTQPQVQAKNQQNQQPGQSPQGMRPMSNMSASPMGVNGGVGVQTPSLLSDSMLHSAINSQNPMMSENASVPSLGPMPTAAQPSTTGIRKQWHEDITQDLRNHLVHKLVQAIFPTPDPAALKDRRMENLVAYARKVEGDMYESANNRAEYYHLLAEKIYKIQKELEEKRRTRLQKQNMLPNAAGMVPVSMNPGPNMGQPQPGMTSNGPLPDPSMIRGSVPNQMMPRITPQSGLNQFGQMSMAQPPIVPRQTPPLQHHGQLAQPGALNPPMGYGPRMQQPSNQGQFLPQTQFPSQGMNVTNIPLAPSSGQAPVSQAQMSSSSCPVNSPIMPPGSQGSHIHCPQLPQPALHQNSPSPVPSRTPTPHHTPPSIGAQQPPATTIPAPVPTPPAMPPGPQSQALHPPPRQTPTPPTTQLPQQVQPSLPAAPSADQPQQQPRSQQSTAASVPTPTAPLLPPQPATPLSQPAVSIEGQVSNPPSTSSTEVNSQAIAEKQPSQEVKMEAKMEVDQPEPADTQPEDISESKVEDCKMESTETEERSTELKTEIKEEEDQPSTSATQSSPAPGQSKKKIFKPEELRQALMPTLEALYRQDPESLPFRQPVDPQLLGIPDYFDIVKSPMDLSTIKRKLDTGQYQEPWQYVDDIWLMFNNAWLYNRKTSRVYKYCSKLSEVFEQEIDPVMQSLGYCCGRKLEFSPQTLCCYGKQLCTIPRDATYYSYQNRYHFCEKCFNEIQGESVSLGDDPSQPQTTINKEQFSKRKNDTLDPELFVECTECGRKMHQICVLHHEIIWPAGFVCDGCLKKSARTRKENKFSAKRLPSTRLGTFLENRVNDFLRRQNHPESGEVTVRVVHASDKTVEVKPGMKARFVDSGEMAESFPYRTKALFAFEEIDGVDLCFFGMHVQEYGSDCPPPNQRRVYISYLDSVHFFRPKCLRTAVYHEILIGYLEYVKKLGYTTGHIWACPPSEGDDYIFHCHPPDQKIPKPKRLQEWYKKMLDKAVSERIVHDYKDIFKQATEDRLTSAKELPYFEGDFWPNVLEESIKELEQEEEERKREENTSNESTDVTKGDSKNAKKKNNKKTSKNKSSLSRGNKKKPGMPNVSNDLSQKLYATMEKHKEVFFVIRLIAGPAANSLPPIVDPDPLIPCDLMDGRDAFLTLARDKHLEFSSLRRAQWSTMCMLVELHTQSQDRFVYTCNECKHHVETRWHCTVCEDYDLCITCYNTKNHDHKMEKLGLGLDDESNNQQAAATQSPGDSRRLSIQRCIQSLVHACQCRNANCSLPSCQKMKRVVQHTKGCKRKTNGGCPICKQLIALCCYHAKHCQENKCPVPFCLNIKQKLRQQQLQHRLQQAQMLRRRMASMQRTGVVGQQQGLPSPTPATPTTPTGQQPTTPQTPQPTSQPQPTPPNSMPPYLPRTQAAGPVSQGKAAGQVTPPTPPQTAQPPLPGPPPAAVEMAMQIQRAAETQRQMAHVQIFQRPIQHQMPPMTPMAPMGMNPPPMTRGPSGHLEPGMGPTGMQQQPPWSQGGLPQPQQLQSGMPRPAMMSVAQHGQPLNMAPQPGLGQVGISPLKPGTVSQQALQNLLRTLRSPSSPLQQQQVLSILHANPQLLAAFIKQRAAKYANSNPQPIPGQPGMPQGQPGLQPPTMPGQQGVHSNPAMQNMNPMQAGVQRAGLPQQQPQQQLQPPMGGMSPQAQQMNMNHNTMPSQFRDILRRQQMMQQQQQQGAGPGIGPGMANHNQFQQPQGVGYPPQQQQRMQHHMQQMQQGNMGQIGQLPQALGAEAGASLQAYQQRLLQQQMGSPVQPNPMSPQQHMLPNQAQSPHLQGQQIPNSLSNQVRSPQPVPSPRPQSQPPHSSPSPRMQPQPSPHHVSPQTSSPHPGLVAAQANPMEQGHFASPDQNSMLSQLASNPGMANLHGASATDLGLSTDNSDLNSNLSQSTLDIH
Description for full-length p300 protein: Microtitre wells were coated with 100 ng of streptavidin and incubated overnight at room temperature. To prevent non-specific binding, 100 μl of 3% BSA, PBS, 01% Tween 20 was added and incubated for 1 hour at 4° C. Wells were washed 3 times with 180 μl PBSM 0.1% Tween 20 and biotinylated peptides, resuspended in 50 μl/well of 3% BSA, PBS, 0.1% Tween 20/NaF/Beta-phosphoglycerate, were incubated for 1 hour at 4° C. Non-specific binding sites were blocked by adding 180 μl 5% milk powder, PBS, 0.1 Tween 20/NaF/Beta-phosphoglycerate for 30 minutes at 4° C. before adding p300 resuspended in 50 ml/well of Sf9LB. Where plant extract was added to p300, the reaction was incubated for 30 minutes before adding to wells. The reaction was the incubated for 1 hour at 4° C. and then the wells were rigorously washed 3 times with 180 μl PBS, 0.1%, Tween 20 before incubating for 1 hour with specific antibodies in 50 μl/well 5% milk powder, PBS, 0.1% Tween 20/NaF/Beta-phosphoglycerate. Wells were given another 3 washes with PBS, 0.1%, Tween 20 to remove unbound antibody and specific binding was detected with secondary antibody (anti-mouse or anti-rabbit) conjugated to horse radish peroxidase (HRP). The binding was detected by ECL and quantified using a luminometer (Fluoroskan Ascent FL).
Plates were rigorously washed 3 times with PBST20 (0.1% v/v) to reduce the non-specific binding. Primary antibodies anti-p300(N-15) (Santa Cruz Biotechnology Inc.), anti-FLAG (Sigma) and anti-Mdm2 (2A10) (Movarian Biotechnologies) were used and the appropriate secondary antibody cross-linked to HRP. The signal detected by Enhanced Chemoluminescence was developed using Fluoroskan Ascent FL.

On to “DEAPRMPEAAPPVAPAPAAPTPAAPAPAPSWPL [EGFP-PRO]”, for which the “basal p53-dependent transactivation of the p21 promoter” value (“basal p53-dependent transactivation” below) in assay [1] is “inhibit endogenous p53-dependent transcription compared to the EGFP-NS peptide and with the same potency as the EGFP-S20D peptide”. The entries for the “cell cycle effect (G2/M arrest)” value in the assay with HCT116 (p53^+/+) cells and with HCT116 p53^−/− cells were “more striking arrest in G2/M phase” and “similarly induced a G2/M arrest”, respectively. The “p53-p300 co-stimulated transactivation, p21 promoter” value in assay [2] is “striking inhibition of p53-p300 co-stimulation”. In addition, the “p53-p300 co-stimulated transactivation, bax promoter” value in assay [3] is “striking inhibition of p53-p300 co-stimulation”.

Take “p53 polyproline peptide (83-102): p53 polyproline peptide containing amino acids 83-102 (AAPAPAPSWPLSSSVPSQKT; UniProt P04637 83-102, looked up, fragment)”: the “binding of full-length p300 protein to the peptide (RLU)” value (shortened to “binding of full-length p300 protein”) in the assay with full-length p300 protein is recorded as “high affinity”.

For the substance “p53PRO (69-88): p53 polyproline peptide amino acids 69-88 (AAPPVAPAPAAPTPAAPAPA; UniProt P04637 69-88, looked up, fragment)”, the “binding of full-length p300 protein” value with full-length p300 protein is “did not restore binding activity”.

Consider EPPLSQETFDDLWKL LPENN [EGFP-S20D], for which, in assay [1], the “basal p53-dependent transactivation” value is reported as “inhibiting p53 activity to the highest degree”. Besides, the “cell cycle effect (G2/M arrest)” value in the assay with HCT116 (p53^+/+) cells is “induced a prominent G2/M arrest”. Further, in assay [2], the “p53-p300 co-stimulated transactivation, p21 promoter” value is “inhibited synergism between p53 and p300; also recorded: inhibits transactivation”; the “p53 protein levels (immunoblot)” value is “increased”. For the same substance, the “p53-p300 co-stimulated transactivation, bax promoter” value in assay [3] is “inhibited synergism between p53 and p300; also recorded: inhibits transactivation”. The “cell cycle effect (G2/M arrest)” value with HCT116 p53^−/− cells is “failed to elicit a defined G2/M arrest”.

For “UBF1 (321-336): consensus peptide from UBF1, amino acids 321-336 (STERMVLCSQQWKLLS; UniProt P17480 321-336, looked up, fragment)”, in the assay with full-length p300 protein, the “binding of full-length p300 protein” value is given as “affinity slightly less than the p53 BOX-I-Ser^20 phospho-peptide”.

For the substance “UBF1 (231-246): consensus peptide from UBF1, amino acids 231-246 (GKQWSQLSDKKRLKWI; UniProt P17480 231-246, looked up, fragment)”, the “binding of full-length p300 protein” value with full-length p300 protein was “did not bind p300”.

For EPPLSQETFSDLWKLLPENN [EGFP-BOX-I], the “p53-dependent gene expression in irradiated cells” value in assay [1] (A375 cells, ionizing radiation (5 Gy) or UV-C (20 J/m^2), p21-Luc) is “stimulated p53 activity in the irradiated cell”. Moreover, the “basal p53-dependent transactivation” value in assay [1] is given as “expected increase in p53-dependent transactivation”. In the assay with HCT116 (p53^+/+) cells, the “cell cycle effect (G2/M arrest)” value was “relatively insignificant role in altering cell-cycle parameters”. Moreover, in assay [2], the “p53-p300 co-stimulated transactivation, p21 promoter” value is “stimulated p53 activity” and the “p53 protein levels (immunoblot)” value is reported as “increased”. Moreover, the “p53-p300 co-stimulated transactivation, bax promoter” value in assay [3] was “stimulated p53 activity”.

For the substance “C-terminal end of the SMAD4 polyproline domain: peptide from the Smad-4 proline-rich region (aa 275-303), C-terminal end (PYTPNLPHHQNGHLQHHPPMPPHPGHYWP; UniProt Q13485 275-303, looked up, fragment)”, the “binding of full-length p300 protein” value in the assay with full-length p300 protein is given as “relatively high affinity”.
